Species on record: Rattus norvegicus
Assay type: toxicity, organism-based, Sprague-Dawley
Details: in vivo, sc, 24 h, route mini-PUMP - SUBCUTANEOUS, time 1 day, vehicle 100 % SALINE
[1] = 0 mg/kg, tissue Blood, dose level Control
[2] = 0 mg/kg, tissue Plasma, dose level Control
[3] = […], tissue Blood, dose 0.77 mg/Kg, dose level High
[4] = […], tissue Plasma, dose 0.77 mg/Kg, dose level High

Description: DrugMatrix - Regimen: Single

CNCC(O)c1ccc(O)c(O)c1 (configuration not stated) [RACEPINEPHRINE]
ABSOLUTE EOSINOPHIL [1]: 26.17 CELLS/uL
ABSOLUTE LYMPHOCYTE [1]: 10985.83 CELLS/uL
ABSOLUTE MONOCYTE [1]: 234.5 CELLS/uL
ABSOLUTE SEGMENTED NEUTROPHIL [1]: 1753.5 CELLS/uL
BASOPHIL [1]: 0%
EOSINOPHIL [1]: 0.17%
ERYTHROCYTE COUNT [1]: 5.64 x10E6/uL
HEMOGLOBIN [1]: 12.68 G/DL
LEUKOCYTE COUNT [1]: 13 x10E3/uL
LYMPHOCYTE [1]: 84.5%
MEAN CORPUSCULAR HEMOGLOBIN [1]: 22.5 pg
MEAN CORPUSCULAR HEMOGLOBIN CONCENTRATION [1]: 36.78 G/DL
MEAN CORPUSCULAR VOLUME [1]: 61.18 fL
NEUTROPHIL [1]: 13.5%
NUCLEATED RED BLOOD CELLS [1]: 0.17 /100WBC
PLATELET COUNT [1]: 679.17 x10E3/uL
ALANINE AMINOTRANSFERASE [2]: 42.67 u/L
ALBUMIN [2]: 3.77 G/DL
ALKALINE PHOSPHATASE [2]: 291.17 u/L
ASPARTATE AMINOTRANSFERASE [2]: 74.5 u/L
BLOOD UREA NITROGEN [2]: 15.33 mg/dL
CARBON DIOXIDE [2]: 30 mmol/L
CHLORIDE [2]: 100.83 MEQ/L
CHOLESTEROL [2]: 65.33 mg/dL
CREATININE [2]: 0.15 mg/dL
LACTATE DEHYDROGENASE [2]: 162.67 u/L
LIPASE [2]: 8.5 u/L
PHOSPHORUS [2]: 12.2 mg/dL
POTASSIUM [2]: 5.73 MEQ/L
SODIUM [2]: 144.7 MEQ/L
TOTAL BILIRUBIN [2]: 0.15 mg/dL
TOTAL PROTEIN [2]: 5.87 G/DL
URIC ACID [2]: 1.93 mg/dL
ABSOLUTE EOSINOPHIL [3]: 58.33 CELLS/uL
ABSOLUTE LYMPHOCYTE [3]: 10774 CELLS/uL
ABSOLUTE MONOCYTE [3]: 283.33 CELLS/uL
ABSOLUTE SEGMENTED NEUTROPHIL [3]: 3051 CELLS/uL
BASOPHIL [3]: 0%
ERYTHROCYTE COUNT [3]: 5.86 x10E6/uL
HEMOGLOBIN [3]: 12.93 G/DL
LEUKOCYTE COUNT [3]: 14.17 x10E3/uL
LYMPHOCYTE [3]: 76.33%
MEAN CORPUSCULAR HEMOGLOBIN [3]: 22.1 pg
MEAN CORPUSCULAR HEMOGLOBIN CONCENTRATION [3]: 36.47 G/DL
MEAN CORPUSCULAR VOLUME [3]: 60.53 fL
NEUTROPHIL [3]: 21.33%
NUCLEATED RED BLOOD CELLS [3]: 0.67 /100WBC
PLATELET COUNT [3]: 983 x10E3/uL
ALBUMIN [4]: 4.03 G/DL
ALKALINE PHOSPHATASE [4]: 374 u/L
BLOOD UREA NITROGEN [4]: 11.67 mg/dL
CHLORIDE [4]: 100.33 MEQ/L
CHOLESTEROL [4]: 88.67 mg/dL
CREATININE [4]: 0.15 mg/dL
GLUCOSE [4]: 283.33 mg/dL
LACTATE DEHYDROGENASE [4]: 103.67 u/L
LIPASE [4]: 9 u/L
PHOSPHORUS [4]: 15.53 mg/dL
POTASSIUM [4]: 5.99 MEQ/L
SODIUM [4]: 145.87 MEQ/L
TOTAL BILIRUBIN [4]: 0.13 mg/dL
URIC ACID [4]: 3.3 mg/dL
